Results from patent US20250243488A1, “METHODS OF MODULATING PROGRANULIN EXPRESSION USING ANTISENSE OLIGONUCLEOTIDES TARGETING REGULATORY RNAS” (Camp4 Therapeutics Corporation, priority 2022, published 2025).
Oligonucleotides are written 5' to 3', each unit as a sugar letter and its base; * is a phosphorothioate linkage, no mark a phosphodiester; rarer units and linkages stand in square brackets, end groups in braces. Plain capitals give the bases only. e = 2'-O-(2-methoxyethyl) (MOE); l = locked nucleic acid (LNA); [5mC] = 5-methylcytosine; d = 2'-deoxy (DNA)

System: GRN mRNA
Assay: GRN mRNA qPCR in SK-N-AS cells transfected with ASOs
Assay type: cell-based, human
Settings: SK-N-AS; for GRN mRNA upregulation as compared to control ASO CO-1589: Table 8 series
In short: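 Fold change in GRN mRNA, by qPCR with GAPDH/PPIA housekeeping normalization, referenced to steric non-targeting control ASO(s) such as CO-1589. ASOs were transfected into SK-N-AS neuroblastoma cells in dose titrations (20 to 160 nM initially). Cells were harvested 48 hours post-transfection.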

[1] = Table 8, normalized to CO-1589 (sNTC1)
[2] = Table 12, normalized to CO-1589

Substance	30 nM FC (GRN mRNA) [2] [FC]	60 nM FC (GRN mRNA) [2] [FC]	120 nM FC (GRN mRNA) [2] [FC]	further results
CO-5288: ASO based on CO-3463 incorporating additional LNA modifications (antisense lG*lG*eA*lT*lA*eG*lG*eA*lT*eA*lG*eG*lA*eG*l[5mC]*eG*lA*eG*l[5mC]*l[5mC])	–	–	–	GRN mRNA upregulation as compared to control ASO CO-1589: 2 fold; 7.5 nM FC (GRN mRNA) [1]: 1.3 FC; 13 nM FC (GRN mRNA) [1]: 1.5 FC; 30 nM FC (GRN mRNA) [1]: 1.5 FC; 60 nM FC (GRN mRNA) [1]: 1.9 FC; 120 nM FC (GRN mRNA) [1]: 1.9 FC; 150 nM FC (GRN mRNA) [1]: 2.1 FC
CO-5289: ASO based on CO-3463 incorporating additional LNA modifications (antisense GGATAGGATAGGAGCGAGCC; LNA/MOE mixmer, PS backbone, 5-methylcytosine; listed as RNA; modified_base 1..20: mod_base = OTHER; note = Phosphorothioate linkage; modified_base 1..2: mod_base = OTHER; note = locked nucleic acid; modified_base 3: mod_base = OTHER; note = 2'-O-(2-methoxyethyl) ribonucleotide; modified_base 4: mod_base)	–	–	–	GRN mRNA upregulation as compared to control ASO CO-1589: 2 fold; 7.5 nM FC (GRN mRNA) [1]: 1.4 FC; 13 nM FC (GRN mRNA) [1]: 1.4 FC; 30 nM FC (GRN mRNA) [1]: 1.5 FC; 60 nM FC (GRN mRNA) [1]: 1.9 FC; 120 nM FC (GRN mRNA) [1]: 1.9 FC; 150 nM FC (GRN mRNA) [1]: 1.9 FC
CO-6380: ASO based on parent ASO CO-3462 (antisense eA*eA*eA*eA*e[5mC]*eA*eA*eA*e[5mC]*eA*e[5mC]*eA*e[5mC]*eA*eA*eG*eT*e[5mC]*e[5mC]*eG)	0.8	0.8	0.8	–
CO-6381: ASO based on parent ASO CO-3462 (antisense eT*eG*eA*eT*e[5mC]*eA*eG*e[5mC]*eT*eT*eG*eG*eG*e[5mC]*eG*eA*e[5mC]*eT*eG*eA)	0.8	0.7	1.0	–
CO-6382: ASO based on parent ASO CO-3462 (antisense e[5mC]*eT*eA*eT*eG*eA*eT*e[5mC]*eA*eG*e[5mC]*eT*eT*eG*eG*eG*e[5mC]*eG*eA*e[5mC])	0.8	0.8	0.9	–
CO-6383: ASO based on parent ASO CO-3462 (antisense eT*eA*eG*eG*eA*dG*dA*dA*dT*d[5mC]*dG*d[5mC]*dT*dT*dT*eG*eG*eG*eA*eG)	1.2	1.0	1.2	–
CO-6384: ASO based on parent ASO CO-3462 (antisense eG*eT*eA*eG*eG*eA*eG*eA*eA*eT*e[5mC]*eG*e[5mC]*eT*eT*eT*eG*eG*eG*eA)	1.0	1.0	1.5	–
CO-6385: ASO based on parent ASO CO-3462 (antisense e[5mC]*eG*eG*eT*eA*eG*eG*eA*eG*eA*eA*eT*e[5mC]*eG*e[5mC]*eT*eT*eT*eG*eG)	1.1	1.2	1.3	–
CO-6386: ASO based on parent ASO CO-3462 (antisense eG*e[5mC]*eG*eA*eG*e[5mC]*e[5mC]*eA*eG*e[5mC]*eT*e[5mC]*eA*eG*eT*eA*eG*e[5mC]*eT*e[5mC])	1.2	0.9	1.1	–
CO-6387: ASO based on parent ASO CO-3462 (antisense eT*eA*eG*eG*eA*dG*dA*dA*eT*d[5mC]*dG*e[5mC]*dT*dT*dT*eG*eG*eG*eA*eG)	1.3	1.0	1.1	–
CO-6388: ASO based on parent ASO CO-3462 (antisense eT*eA*eG*eG*eA*lG*dA*dA*lT*d[5mC]*dG*l[5mC]*dT*dT*lT*eG*eG*eG*eA*eG)	1.1	1.0	1.4	–
CO-6389: ASO based on parent ASO CO-3462 (antisense eT*eA*eG*lG*eA*dG*dA*lA*dT*d[5mC]*dG*l[5mC]*dT*dT*dT*lG*eG*eG*eA*eG)	1.0	1.0	2.1	–
CO-6390: ASO based on parent ASO CO-3462 (antisense eT*eA*eG*eG*lA*dG*dA*dA*lT*d[5mC]*dG*d[5mC]*lT*dT*dT*eG*lG*eG*eA*eG)	1.3	1.3	1.5	–
CO-6391: ASO based on parent ASO CO-3462 (antisense eT*eA*eG*eG*eA*lG*eA*eA*lT*e[5mC]*eG*l[5mC]*eT*eT*lT*eG*eG*eG*eA*eG)	1.3	1.0	1.6	–
CO-6392: ASO based on parent ASO CO-3462 (antisense eT*eA*eG*lG*eA*lG*eA*lA*eT*l[5mC]*eG*l[5mC]*eT*lT*eT*lG*eG*lG*eA*eG)	1.0	0.8	1.0	–
CO-6393: ASO based on parent ASO CO-3462 (antisense eT*eA*lG*eG*lA*eG*lA*eA*lT*e[5mC]*lG*e[5mC]*lT*eT*lT*eG*lG*eG*eA*eG)	0.9	0.7	1.0	–
CO-6394: ASO based on parent ASO CO-3462 (antisense eT*eA*lG*eG*eA*lG*eA*eA*lT*e[5mC]*eG*l[5mC]*eT*eT*lT*eG*eG*lG*eA*eG)	1.1	0.9	1.3	–
CO-6395: ASO based on parent ASO CO-3462 (antisense eT*eA*eG*eG*lA*eG*eA*eA*lT*e[5mC]*eG*e[5mC]*lT*eT*eT*eG*lG*eG*eA*eG)	1.0	1.3	1.6	–
CO-6396: ASO based on parent ASO CO-3462 (antisense eT*eA*eG*lG*eA*eG*eA*lA*eT*e[5mC]*eG*l[5mC]*eT*eT*eT*lG*eG*eG*eA*eG)	1.4	1.9	1.9	–
CO-6397: ASO based on parent ASO CO-3462 (antisense eT*eA*eG*eG*eA*lG*eA*eA*eT*e[5mC]*lG*e[5mC]*eT*eT*eT*lG*eG*eG*eA*eG)	1.4	1.8	1.8	–
CO-6398: ASO based on parent ASO CO-3462 (antisense eT*eA*eG*eG*lA*eG*eA*eA*eT*l[5mC]*eG*e[5mC]*eT*eT*lT*eG*eG*eG*eA*eG)	1.3	1.5	1.8	–
CO-6399: ASO based on parent ASO CO-3462 (antisense eG*eT*eA*eG*eG*eA*dG*dA*dA*dT*d[5mC]*dG*d[5mC]*dT*dT*dT*eG*eG*eG*eA*eG*e[5mC])	1.3	1.6	1.9	–
CO-6400: ASO based on parent ASO CO-3462 (antisense eG*eT*eA*eG*eG*eA*eG*eA*eA*eT*e[5mC]*eG*e[5mC]*eT*eT*eT*eG*eG*eG*eA*eG*e[5mC])	1.1	1.3	1.3	–
CO-6401: ASO based on parent ASO CO-3462 (antisense eG*eT*eA*eG*eG*dA*dG*dA*eA*dT*d[5mC]*dG*d[5mC]*eT*dT*dT*dG*eG*eG*eA*eG*e[5mC])	1.2	1.5	1.7	–
CO-6402: ASO based on parent ASO CO-3462 (antisense eG*eT*eA*eG*eG*lA*dG*dA*lA*dT*d[5mC]*dG*d[5mC]*lT*dT*dT*lG*eG*eG*eA*eG*e[5mC])	1.5	1.6	1.8	–
CO-6403: ASO based on parent ASO CO-3462 (antisense eG*eG*eT*eA*eG*eG*eA*dG*dA*dA*dT*d[5mC]*dG*d[5mC]*dT*dT*dT*eG*eG*eG*eA*eG*e[5mC]*eA)	1.6	2.2	2.4	–
CO-6404: ASO based on parent ASO CO-3462 (antisense eG*eG*eT*eA*eG*eG*eA*eG*eA*eA*eT*e[5mC]*eG*e[5mC]*eT*eT*eT*eG*eG*eG*eA*eG*e[5mC]*eA)	1.3	1.3	1.5	–
CO-6405: ASO based on parent ASO CO-3462 (antisense eG*eG*eT*eA*eG*dG*dA*eG*dA*dA*eT*d[5mC]*dG*e[5mC]*dT*dT*eT*dG*dG*eG*eA*eG*e[5mC]*eA)	1.1	1.3	1.3	–
CO-6406: ASO based on parent ASO CO-3462 (antisense eG*eG*eT*eA*eG*dG*dA*lG*dA*dA*lT*d[5mC]*dG*l[5mC]*dT*dT*lT*dG*dG*eG*eA*eG*e[5mC]*eA)	1.4	1.4	1.7	–
